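Exposure lasted 48 hours, with cells grown in 96-well plates and compounds tested at five concentrations. TGI is the concentration that stops growth completely.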
What was measured:
Experiment in all cases: inhibition of tumour cell growth, NCI panel, 48 h
[1] = test system: HCT-116 colon
[2] = test system: HCT-15 colon
[3] = test system: CAKI-1 renal
[4] = test system: XF 498 CNS
[5] = test system: DLD-1 colon
[6] = test system: IGROV1 ovarian
[7] = test system: OVCAR-5 ovarian
[8] = test system: OVCAR-3 ovarian
[9] = test system: DMS 273 small cell lung
[10] = test system: A549 NSCLC
[11] = test system: ACHN renal
[12] = test system: UACC-257 melanoma
[13] = test system: UO-31 renal
[14] = test system: OVCAR-8 ovarian
[15] = test system: HOP-18 NSCLC
[16] = test system: SK-MEL-2 melanoma
[17] = test system: HT29 colon
[18] = test system: SF-295 CNS
[19] = test system: RXF 393 renal
[20] = test system: M19-MEL melanoma
[21] = test system: MALME-3M melanoma
[22] = test system: CCRF-CEM leukemia
[23] = test system: EKVX NSCLC
[24] = test system: SW-620 colon
[25] = test system: MOLT-4 leukemia
[26] = test system: HCC-2998 colon
[27] = test system: RXF-631 renal
[28] = test system: M14 melanoma
[29] = test system: SNB-75 CNS
[30] = test system: SF-539 CNS
[31] = test system: NCI-H226 lung
[32] = test system: U251 CNS
[33] = test system: SF-268 CNS
[34] = test system: TK-10 renal
[35] = test system: 786-0 renal
[36] = test system: NCI-H23 lung
[37] = test system: LXFL 529 NSCLC
[38] = test system: KM20L2 colon
[39] = test system: SK-MEL-5 melanoma
[40] = test system: LOX IMVI melanoma
[41] = test system: SNB-19 CNS
[42] = test system: HL-60(TB) leukemia
[43] = test system: HOP-62 NSCLC
[44] = test system: K-562 leukemia
[45] = test system: SK-OV-3 ovarian
[46] = test system: UACC-62 melanoma
[47] = test system: NCI-H460 lung
[48] = test system: OVCAR-4 ovarian
[49] = test system: NCI-H522 lung
[50] = test system: COLO 205 colon
[51] = test system: RPMI-8226 leukemia
[52] = test system: SN12C renal
[53] = test system: KM12 colon
[54] = test system: SNB-78 CNS
[55] = test system: SK-MEL-28 melanoma
[56] = test system: A498 renal
[57] = test system: DMS 114 small cell lung

Cc1ccc(-n2c3nc(=O)n(C)c(=O)c-3nc3ccccc32)c(C)c1
TGI [1]: 24 µM | TGI [2]: 22.5 µM | TGI [3]: 57.7 µM | TGI [4]: 26 µM | TGI [5]: 39.9 µM | TGI [6]: 36.4 µM | TGI [7]: 32.7 µM | TGI [8]: 6.33 µM | TGI [9]: 18.5 µM | TGI [10]: 20.4 µM | TGI [11]: 15.8 µM | TGI [12]: 12.6 µM | TGI [13]: 52.5 µM | TGI [14]: 32.9 µM | TGI [15]: 20.1 µM | TGI [16]: 27.5 µM | TGI [17]: 11.7 µM | TGI [18]: 22.9 µM | TGI [19]: 34.5 µM | TGI [20]: 3.33 µM | TGI [21]: 12.9 µM | TGI [22]: 41.6 µM | TGI [23]: 21.6 µM | TGI [24]: 19.1 µM | TGI [25]: 36.2 µM | TGI [26]: 19 µM | TGI [27]: 23.9 µM | TGI [28]: 18.6 µM | TGI [29]: 26.7 µM | TGI [30]: 26.4 µM | TGI [31]: 30.7 µM | TGI [32]: 32.1 µM | TGI [33]: 34.8 µM | TGI [34]: 27.2 µM | TGI [35]: 42.1 µM | TGI [36]: 7.75 µM | TGI [37]: 24.8 µM | TGI [38]: 17.6 µM | TGI [39]: 18.5 µM | TGI [40]: 33.9 µM | TGI [41]: 16.1 µM | TGI [42]: 29.2 µM | TGI [43]: > 100 µM | TGI [44]: 40.6 µM | TGI [45]: 75.8 µM | TGI [46]: 5.49 µM | TGI [47]: 15.3 µM | TGI [48]: 24.6 µM | TGI [49]: 29 µM | TGI [50]: 13 µM | TGI [51]: 42.4 µM | TGI [52]: 22.8 µM | TGI [53]: 26.5 µM | TGI [54]: 44.5 µM

CC1CCCP(=O)(c2ccccc2)CCC1 (stereo not drawn)
TGI [55]: > 100 µM | TGI [2]: > 100 µM | TGI [3]: > 100 µM | TGI [4]: > 100 µM | TGI [5]: > 100 µM | TGI [6]: > 100 µM | TGI [7]: > 100 µM | TGI [8]: > 100 µM | TGI [9]: > 100 µM | TGI [10]: > 100 µM | TGI [11]: > 100 µM | TGI [12]: > 100 µM | TGI [13]: > 100 µM | TGI [14]: > 100 µM | TGI [15]: 96.4 µM | TGI [16]: > 100 µM | TGI [17]: > 100 µM | TGI [18]: > 100 µM | TGI [19]: > 100 µM | TGI [20]: > 100 µM | TGI [21]: > 100 µM | TGI [22]: > 100 µM | TGI [23]: > 100 µM | TGI [24]: > 100 µM | TGI [25]: > 100 µM | TGI [26]: > 100 µM | TGI [27]: > 100 µM | TGI [28]: > 100 µM | TGI [29]: > 100 µM | TGI [30]: > 100 µM | TGI [32]: > 100 µM | TGI [33]: > 100 µM | TGI [56]: > 100 µM | TGI [34]: > 100 µM | TGI [35]: > 100 µM | TGI [36]: > 100 µM | TGI [37]: > 100 µM | TGI [38]: > 100 µM | TGI [39]: > 100 µM | TGI [40]: > 100 µM | TGI [41]: > 100 µM | TGI [42]: > 100 µM | TGI [57]: > 100 µM | TGI [43]: > 100 µM | TGI [44]: > 100 µM | TGI [45]: > 100 µM | TGI [46]: > 100 µM | TGI [47]: > 100 µM | TGI [48]: > 100 µM | TGI [50]: > 100 µM | TGI [51]: > 100 µM | TGI [52]: > 100 µM | TGI [53]: > 100 µM | TGI [54]: > 100 µM

Reference: PubChem BioAssay (NCI)
